Three molecules from ChEMBL document CHEMBL1150932, “Norepinephrine-augmenting lipolytic effectors from Astilbe thunbergii rhizomes” (J Nat Prod, 1998) can be followed below.

For data set [1], the species on record is Rattus norvegicus. The experiment in a line: Enhancement of norepinephrine-induced lipolysis in Wistar rat fat cells assessed as free fatty acid release per mL of packed fat cells after 1 hr relative to norepinephrine. In kind it is functional, cell-based.
The species entered for data set [2] is Rattus norvegicus. The data set is described as follows: Induction of lipolysis in Wistar rat fat cells assessed as free fatty acid release per mL of packed fat cells after 1 hr relative to norepinephrine. In kind it is functional, cell-based.
The species entered for data set [3] is Rattus norvegicus. The data set is described as follows: Enhancement of norepinephrine-induced lipolysis in cell-free system consisting endogenous lipid droplets from Wistar rat fat cells assessed as free fatty acid release per mL of packed fat cells after 1 hr in presence of hormone-sensitive lipase. In kind it is functional.
A short description of data set [4]: Effect on lipolysis in cell-free system consisting sonicated lipid droplets assessed as free fatty acid release at 1000 ug in presence of hormone-sensitive lipase relative to untreated control. In kind it is physicochemical.
Data set [5] is described as follows: Enhancement of norepinephrine-induced lipolysis in cell-free system consisting sonicated lipid droplets assessed as free fatty acid release at 1000 ug in presence of hormone-sensitive lipase relative to untreated control. In kind it is physicochemical.
Data set [6] can be described thus: Stimulation of ACTH-induced lipolysis in Wistar rat fat cells assessed as free fatty acid release per mL of packed fat cells at 100 ug after 1 hr relative to ACTH. In kind it is functional.
Data set [7] is described as follows: Stimulation of ACTH-induced lipolysis in Wistar rat fat cells assessed as free fatty acid release per mL of packed fat cells at 1000 ug after 1 hr relative to ACTH. Type of data set: functional.
The species named for data set [8] is Rattus norvegicus. The data set is described as follows: Inhibition of insulin-induced lipogenesis from [U-14C]glucose in Wistar rat fat cells after 1 hr by liquid scintillation counting. In kind it is functional, cell-based.

The structures appear in SMILES notation. Active and inactive are the calls of the source. No cut-off for these calls is given here.

Turning to `C[C@@H]1O[C@@H](O[C@H]2C(=O)c3c(O)cc(O)cc3O[C@@H]2c2ccc(O)c(O)c2)[C@H](O)[C@H](O)[C@H]1O` [ASTILBIN], the result in the data set filed under Rattus norvegicus [1], in the data set listed under Rattus norvegicus [3] and in the data set listed under Rattus norvegicus [8] was Active. Besides, the outcome in the data set listed under Rattus norvegicus [2] was inactive. In addition, the Activity turned out to be 95.7% in data set [4], 98.5% in data set [5], 195.6% in data set [6] and 278.4% in data set [7].
Consider `C[C@@H]1O[C@@H](Oc2coc3cc(O)cc(O)c3c2=O)[C@H](O)[C@H](O)[C@H]1O` [EUCRYPHIN], for which the outcome in the data set listed under Rattus norvegicus [1], in the data set filed under Rattus norvegicus [3] and in the data set filed under Rattus norvegicus [8] was Active. For the same molecule, the result in the data set listed under Rattus norvegicus [2] was inactive. For the same molecule, the Activity in data set [4] is 98.5%; in data set [5] it was 100%; in data set [6] it was 79.4%; in data set [7], 332.8%.
As for `COc1c(O)cc2c(c1O)[C@@H]1O[C@H](CO)[C@@H](O)[C@H](O)[C@H]1OC2=O` [BERGENIN], the result in the data set filed under Rattus norvegicus [1], in the data set filed under Rattus norvegicus [3] and in the data set listed under Rattus norvegicus [8] was Active. In the data set listed under Rattus norvegicus [2], the result was inactive. Besides, the Activity in data set [4] amounted to 98.6%; in data set [5], 96.2%; in data set [6], 105.9%; in data set [7] it was 356.9%.
